# Experimental data: article PMC3477293 (ACS chemical biology, 2012)
# “And” between values parts separate entries of the source, which are not always exact repeats. Equal values may be shown once. Read-outs that look alike come from different tables or passages of the source.
# Tests used:
# AbaR [1] = target: T1, AbaR (Acinetobacter nosocomialis, UniProt A0A0N8YGA2); test: AbaR agonism reporter gene; type: cell-based, Acinetobacter baumannii; conditions: for Activation [%]: AHLs at 100 µM, normalized to (R)-OH-dDHL at 100 µM (set to 100%), error ≤ ±10%; for EC50: EC50, AHLs over 200 pM – 200 µM; for AbaR agonism (in words): 100 µM
# T1 sequence (A0A0N8YGA2 whole entry): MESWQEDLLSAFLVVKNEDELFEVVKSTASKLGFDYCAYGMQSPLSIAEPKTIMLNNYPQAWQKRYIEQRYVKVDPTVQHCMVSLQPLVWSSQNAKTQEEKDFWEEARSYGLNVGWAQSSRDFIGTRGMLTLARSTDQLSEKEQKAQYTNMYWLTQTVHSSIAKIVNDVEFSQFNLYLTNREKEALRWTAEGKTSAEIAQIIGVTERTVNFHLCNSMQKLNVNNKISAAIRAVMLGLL
# AbaR [2] = target: T1, AbaR; conditions: identical A. baumannii reporter strain; ref 43 (Garner et al.); cited from earlier work
# AbaR [3] = target: T1, AbaR; test: AbaR antagonism reporter gene; type: cell-based, Acinetobacter baumannii; conditions: for AbaR antagonistic activity (in words): primary screening data
# A. baumannii (ΔabaI) [4] = test: A. baumannii motility assay on soft agar; type: cell-based, Acinetobacter baumannii; conditions: for IC50: Acinetobacter baumannii, read-out: IC50 value, motility inhibition; for concentration preventing migration (comparable to ΔabaI mutant): (R)-OH-dDHL supplemented 0.3% soft agar
# A. baumannii (ΔabaI) [5] = test: A. baumannii biofilm assay; type: cell-based, Acinetobacter baumannii; conditions: AHL at 100 µM, crystal violet, 24 h; for reduction of biofilm recovery: (R)-OH-dDHL added; for inhibition of biofilm formation (in words): biofilm recovery with (R)-OH-dDHL
# wild-type A. baumannii = test: A. baumannii biofilm assay; type: cell-based; conditions: Acinetobacter baumannii, read-out: inhibition of biofilm formation
# LasR = conditions: cited from earlier work
# [6] = AHLs over 10 nM – 100 µM against (R)-OH-dDHL at 0.70 µM
structure (smiles),measurement,setting,value
CCCCCCCCCC(=O)CC(=O)N[C@H]1CCOC1=O [Compound 2],Activation [%],AbaR [1],62%
same,EC50,AbaR [1],7.57 µM
"CCCCCCCCC[C@@H](O)CC(=O)N[C@H]1CCOC1=O [(R)-OH-dDHL, N-(3’-hydroxydodecanoyl)-L-HL, reference compound]",Activation [%],AbaR [1],100%
same,EC50,AbaR [1],0.7 µM and 0.699 µM
same,fold more active than (S)-OH-dDHL (AbaR activation),AbaR [1]; from EC50 values,~ 40 fold
same,EC50,AbaR [2],0.67 µM
"O=C(Cc1cccc(Cl)c1)N[C@H]1CCOC1=O [Compound C6, 3-chloro PHL]",IC50,AbaR [3],5.47 µM
same,inhibition at 100 µM,AbaR [3],83%
same,IC50,A. baumannii (ΔabaI) [4],~40 µM
"O=C(Cc1cccc(Br)c1)N[C@H]1CCOC1=O [Compound C8, 3-bromo PHL]",IC50,AbaR [3],5.06 µM
same,inhibition at 100 µM,AbaR [3],90%
same,AbaR antagonistic activity (in words),AbaR [3],moderately to strongly inhibitory
same,concentration preventing migration (comparable to ΔabaI mutant),A. baumannii (ΔabaI) [4],less than 20 µM
same,IC50,A. baumannii (ΔabaI) [4],~7 µM
same,reduction of biofilm recovery,A. baumannii (ΔabaI) [5],~ 40%
same,inhibition of biofilm formation (in words),A. baumannii (ΔabaI) [5],inhibit biofilm formation to significant levels
same,inhibition at 100 µM,wild-type A. baumannii,~40%
O=C(Cc1ccccc1Cl)N[C@H]1CCOC1=O [Compound C7],inhibition at 100 µM,AbaR [3],83%
same,IC50,AbaR [3]; [6],18.5 µM
"O=C(Cc1ccc(I)cc1)N[C@H]1CCOC1=O [Compound C10, 4-iodo PHL]",IC50,AbaR [3],7.06 µM
same,inhibition at 100 µM,AbaR [3],91%
same,IC50,A. baumannii (ΔabaI) [4],~70 µM
same,reduction of biofilm recovery,A. baumannii (ΔabaI) [5],~ 40%
same,inhibition of biofilm formation (in words),A. baumannii (ΔabaI) [5],inhibit biofilm formation to significant levels
same,inhibition at 100 µM,wild-type A. baumannii,~40%
"CCCCCCC(=O)N[C@H]1CCOC1=O [Compound 4, heptanoyl-HL]",IC50,AbaR [3],13.7 µM
same,inhibition at 100 µM,AbaR [3],75%
"CCCCCCCC(=O)NC1CCOC1=O (stereo not drawn) [Compound A3, octanoyl-HL]",Inhibition [%],"AbaR [3]; AHLs at 100 µM against (R)-OH-dDHL at 0.70 µM, error ≤ ±10%",60%
"O=C(Cc1ccc(Br)cc1)N[C@H]1CCOC1=O [Compound 8, 4-bromo PHL]",IC50,AbaR [3],7.83 µM
same,inhibition at 100 µM,AbaR [3],71%
O=C(Cc1ccc(F)cc1)N[C@H]1CCOC1=O [Compound C2],IC50,AbaR [3]; [6],> 25 µM
"CCCCCCCCC[C@H](O)CC(=O)N[C@H]1CCOC1=O [(S)-OH-dDHL, N-(3’-hydroxydodecanoyl)-L-HL]",Activation [%],AbaR [1],90%
same,EC50,AbaR [1],29 µM and 28.9 µM
same,EC50,AbaR [2],0.82 µM
"CCCCCCCCCC(=O)NC1CCOC1=O (stereo not drawn) [Compound A7, decanoyl-HL]",AbaR agonism (in words),AbaR [1],limited AbaR agonism
same,Activation [%],AbaR [1],3%
"O=C(Cc1cccc(I)c1)N[C@H]1CCOC1=O [Compound C11, 3-iodo PHL]",IC50,AbaR [3],2.32 µM
same,inhibition at 100 µM,AbaR [3],91%
same,concentration preventing migration (comparable to ΔabaI mutant),A. baumannii (ΔabaI) [4],less than 20 µM
same,IC50,A. baumannii (ΔabaI) [4],~15 µM
"CCCCCCCCCCCCCC(=O)NC1CCOC1=O (stereo not drawn) [Compound A8, tetradecanoyl-HL]",AbaR agonism (in words),AbaR [1],limited AbaR agonism
same,Activation [%],AbaR [1],9%
O=C(Cc1ccc(Cl)cc1)N[C@H]1CCOC1=O [Compound C5],inhibition at 100 µM,AbaR [3],78%
same,IC50,AbaR [3]; [6],16.7 µM
O=C(Cc1ccccc1Br)N[C@H]1CCOC1=O [Compound C9],IC50,AbaR [3],17.5 µM
same,inhibition at 100 µM,AbaR [3],97%
same,AbaR antagonistic activity (in words),AbaR [3],moderately to strongly inhibitory
"CCCCCC(=O)CC(=O)N[C@H]1CCOC1=O [Compound 1, 3-oxo-octanoyl-HL]",IC50,AbaR [3],2.91 µM
same,inhibition at 100 µM,AbaR [3],73%
same,AbaR agonism (in words),AbaR [1],limited AbaR agonism
same,concentration preventing migration (comparable to ΔabaI mutant),A. baumannii (ΔabaI) [4],less than 20 µM
same,inhibition of biofilm formation (in words),A. baumannii (ΔabaI) [5],inhibit biofilm formation to significant levels
same,LasR inhibition,LasR,50%
same,IC50,LasR; read-out: IC50 (LasR),0.11 µM
"O=C(Cc1cccc([N+](=O)[O-])c1)N[C@H]1CCOC1=O [Compound C14, 3-nitro PHL]",IC50,AbaR [3],8 µM
same,inhibition at 100 µM,AbaR [3],70%
same,IC50,A. baumannii (ΔabaI) [4],~70 µM
"CCCCCCCCCCCC(=O)NC1CCOC1=O (stereo not drawn) [Compound A5, dodecanoyl HL]",AbaR agonism (in words),AbaR [1],no agonistic activity
"O=C(Cc1ccccc1I)N[C@H]1CCOC1=O [Compound C12, 2-iodo-PHL]",IC50,AbaR [3],6.13 µM
same,inhibition at 100 µM,AbaR [3],80%
same,IC50,A. baumannii (ΔabaI) [4],~40 µM
"O=C(CCc1ccccc1)N[C@H]1CCOC1=O [Compound B10, phenylpropanoyl HL]",IC50,AbaR [3],11 µM
same,inhibition at 100 µM,AbaR [3],72%
